Experimental data as given in patent US10349662B2, “Insecticidal compositions and methods of using the same” (priority 2011, dated 2019).
In brackets after ≈: the same amount, converted by molar mass. Several values for one entry are separate records, joined by “and”; a condition that tells them apart may be missing. Identical values can stand only once. Like-named read-outs stand apart in the source and are kept apart here.

Tests used:
[1] = cited from earlier work
Cytochrome P450 enzyme = assay: P450 activity assay (7-ethoxycoumarin, fluorescence); type: biochemical, A. aegypti; conditions: FIG. 2; for inhibition of P450 activity: added to the assay
Description: Cytochrome P450 enzyme solution was prepared by homogenizing 15, 3 to 5 day old, A. aegypti females and centrifuging the mixture at 10,000 g for 1 minute. The pellet was discarded, and the supernatant was used as the P450 enzyme stock solution. 10 μL of this P450 enzyme stock and 90 μL of 7-ethoxycoumarin solution (0.526 mM of 7-ethoxycoumarin, 1.11 mM NADPH, 0.05 mM phosphate buffer) was added to each well of the micropipette plate to begin the reaction. During the reaction, the micropipette plate was covered with aluminum foil to prevent photo-bleaching. The reaction was incubated at 30° C. for 4 hours. The reaction was stopped by adding 30 μL of stop solution (0.1 mM glycine, pH 10.4, 50% ethanol). The micropipette plate was then analyzed by measuring the fluorescence (Emission=460 nm, Excitation=360 nm) of each well. High fluorescence was directly related to product, and thus indicated a high level of P450 activity.

Aedes aegypti mosquitoes = assay: Topical bioassay on adult female Aedes aegypti mosquitoes (knockdown 1 h, mortality 24 h; Colby calculation for combinations); type: in vivo; conditions: for mortality at 3 %: read-out: % MORTALITY AFTER 24 HRS, single active, 3%
Text: Components of a composition can have a synergistic or additive effect on insecticidal activity. Components have an additive effect when the effect of the combination is equal to the sum of the effects of each individual component. In contrast, components have a synergistic effect when the effect of the combination exceeds the sum of the effects of the components when applied individually. The effect (E) of a combination of two compounds may be calculated using the Colby formula (1) (S. R. Colby, “Calculating Synergistic and Antagonistic Responses of Herbicide Combinations”, Weeds 1967, 15, 20-22):
If the actual insecticidal kill rate is the calculated value (E), then the action of the combination is additive. If the actual insecticidal kill rate exceeds the calculated value (E), then the action of the combination is super-additive, that is, a synergistic effect is present. If the insecticidal kill rate is lower than the calculated value (E), then the action of the combination is considered antagonistic.
Adult female Aedes aegypti mosquitoes were segregated in 18″×18″ screen cages based on date of eclosion, therefore the exact age of the mosquitoes were known for bioassays.
Ten female mosquitoes, aged four to six days after eclosion, were aspirated out of their respective cage and into a small glass jar. The mosquitoes were then anesthetized with CO2 gas for 30 seconds. After the adults were anesthetized, they were quickly placed on a plastic platform for treatment application. Treatments were serially diluted (using a BrandTech Scientific Transferpette S pipette (100-1000 μL), labeled centrifuge tubes, and a vortex mixer) from stocks of insecticides using reagent grade acetone as the diluent to concentrations as indicated for each treatment solution. A treatment solution may contain additional ingredients as indicated for each study.
Using a Hamilton PB00-1 Repeating Dispenser with a Hamilton 25 Microliter Syringe, 0.5 μL of each treatment solution was applied to the thorax of each mosquito. Immediately following the application of the treatment, the mosquitoes were gently transferred into a clean paper cup and covered with screen. The mesh screen prevented the mosquitoes from escaping and allowed the specimens to be viewed for ratings. A cotton ball soaked with 10% sucrose solution was inserted into a side hole of each cup for hydration and nourishment. Each treatment variable in the study was replicated three times using separate cups for each replication.
The untreated controls treatments were anesthetized for 30 seconds and gently transferred to the paper cups. The acetone treated control was treated exactly as described above except that the solution applied to each mosquito was undiluted acetone.
The condition of the mosquitoes in each cup was recorded at one hour and 24 hours after initial treatment. The condition classifications used were (1) alive and flying, (2) alive and unable to fly, or (3) dead. The percent mortality for each treatment was calculated by summing the mortalities of each replicate then calculating the percent dead from the total number of mosquitoes.
Where indicated, the mortality data were subjected to probit analysis using the Statistical Analysis System Version 9.1 program PROC PROBIT (SAS Institute (2003) PROC user's manual, version 9.1. SAS Institute, Cary, N.C.).

[2] = test system: Culex quinquefasciatus mosquitoes; assay: Topical bioassay on adult female Culex quinquefasciatus mosquitoes (knockdown 1 h, mortality 24 h; Colby calculation for combinations); type: in vivo

## CC(C)=CCC[C@]1(C)[C@H]2CC=C(C)[C@@H]1C2 (relative stereo) [Bergamotene Trans Alpha]
[1]
  Vapor Pressure (@ 25° C.): 0.028 mmHg
  Solubility (in water @ 25° C.): 0.030 µg/mL (≈ 0.147 µM)

## C=C1/C=C/[C@H](C(C)C)CC/C(C)=C/CC1 [Germacrene D]
[1]
  Vapor Pressure (@ 25° C.): 0.023 mmHg
  Solubility (in water @ 25° C.): 0.013 µg/mL (≈ 0.0636 µM)

## C=CC(C)(O)CCC=C(C)C (stereo not drawn) [Linalool]
[1]
  Vapor Pressure (@ 25° C.): 0.16 mmHg
  Viscosity (@ 25° C.): 4.4 mPa

## C=C1CC[C@@H]2[C@H]([C@H]3[C@H]1CC[C@]3(C)O)C2(C)C [Spathulenol]
[1]
  Vapor Pressure (@ 25° C.): 1.2 × 10^−4 mmHg
  Solubility (in water @ 25° C.): 12.4 µg/mL (≈ 56.3 µM)

## C=C1CC[C@H]2O[C@]2(C)CC[C@@H]2[C@@H]1CC2(C)C [Caryophyllene Oxide-Beta]
[1]
  Vapor Pressure (@ 25° C.): 0.01 mmHg
  Solubility (in water @ 25° C.): 2.21 µg/mL (≈ 10 µM)

## C=C(C)C1CC=C(CO)CC1 (racemic) [Pennyl Alcohol (racemic)]
[1]
  Vapor Pressure (@ 25° C.): 0.00478 mmHg
  Solubility (in water @ 25° C.): 471 µg/mL (≈ 3090 µM)

## CCCCOCCOCCOCc1cc2c(cc1CCC)OCO2 [PBO, piperonyl butoxide, reference compound]
Cytochrome P450 enzyme
  inhibition of P450 activity: acted as inhibitors

## C=C(C)[C@H]1CC=C(C)CC1 [D-limonene]
[1]
  Vapor Pressure (@ 25° C.): 1.541 mmHg

## C=C(C)C1CC=C(C=O)CC1 (stereo not drawn) [Perillaldehyde, perillaldehyde]
Aedes aegypti mosquitoes; 3%
  1 hour knockdown: 53%
Aedes aegypti mosquitoes; Aedes aegypti, topical, 24 h, read-out: % MORTALITY AFTER 24 HRS, 1%
  mortality at 1 %: 3%
Aedes aegypti mosquitoes; Aedes aegypti, topical, 24 h, read-out: % MORTALITY AFTER 24 HRS, single active, 1%
  mortality at 1 %: 0%
Aedes aegypti mosquitoes; Aedes aegypti, topical, 24 h
  mortality at 3 %: 73%
[2]; 2%
  1 hour knockdown: 33%
  % MORTALITY AFTER 24 HRS: 13%
[2]; 3%
  % MORTALITY AFTER 24 HRS: 13%
Cytochrome P450 enzyme
  inhibition of P450 activity: acted as inhibitors
Cytochrome P450 enzyme; perillaldehyde at 1% vs PBO at 2%
  inhibition of P450 activity relative to PBO: as potent an inhibitor of P450 as PBO at 2%
Cytochrome P450 enzyme; perillaldehyde at 10% vs PBO at 2%
  inhibition of P450 activity relative to PBO: a more potent inhibitor of P450 than PBO at 2%
[1]
  Vapor Pressure (@ 25° C.): 0.0463 mmHg
  Solubility (in water @ 25° C.): 160.7 µg/mL (≈ 1070 µM)

## C=C1CCC2CC1C2(C)C (stereo not drawn) [Pinene Beta]
[1]
  Vapor Pressure (@ 25° C.): 2.93 mmHg

## C=C(C)[C@@H]1CC=C(CO)CC1 [(S)-(−)-Perillyl alcohol]
Aedes aegypti mosquitoes; 1%
  % MORTALITY AFTER 24 HRS: 0%
Aedes aegypti mosquitoes; 2%, listed as (S)-(−)-perillyl alcohol
  % MORTALITY AFTER 24 HRS: 70%
Aedes aegypti mosquitoes; 2%, listed as (S)-Perillyl alcohol
  % MORTALITY AFTER 24 HRS: 33%
Aedes aegypti mosquitoes; single active, 2%
  % MORTALITY AFTER 24 HRS: 80% and 67%

## CC1=CCC2CC1C2(C)C (stereo not drawn) [Pinene Alpha]
[1]
  Vapor Pressure (@ 25° C.): 4.75 mmHg

## CN/C(=N/CC1CCOC1)N[N+](=O)[O-] (stereo not drawn) [Dinotefuran, dinotefuran, reference compound]
Aedes aegypti mosquitoes; 0.004 μg/mosquito
  1 hour knockdown: 0%
  % MORTALITY AFTER 24 HRS: 0%
Aedes aegypti mosquitoes; 0.006 μg/mosquito
  1 hour knockdown: 0% and 3%
Aedes aegypti mosquitoes; Aedes aegypti, topical, 24 h, read-out: % MORTALITY AFTER 24 HRS, 0.004 μg/mosquito
  mortality at 0.004 µg/mosquito: 0%
Aedes aegypti mosquitoes; topical application, adult Aedes aegypti
  LD50: 0.06 μg/mosquito
[2]; 0.008 μg/mosquito
  1 hour knockdown: 10%
  % MORTALITY AFTER 24 HRS: 77% and 73%

## CC[S+]([O-])c1c(C#N)nn(-c2c(Cl)cc(C(F)(F)F)cc2Cl)c1N (stereo not drawn) [ethiprole, reference compound]
Aedes aegypti mosquitoes; 0.0005 μg/mosquito
  1 hour knockdown: 0%
Aedes aegypti mosquitoes; Aedes aegypti, topical, 24 h, read-out: % MORTALITY AFTER 24 HRS, 0.0005 μg/mosquito
  mortality at 0.0005 µg/mosquito: 97%

## C=C1CC/C=C(\C)CC[C@@H]2[C@@H]1CC2(C)C [β-Caryophyllene]
Aedes aegypti mosquitoes; 1%
  1 hour knockdown: 0%
  % MORTALITY AFTER 24 HRS: 0%
Aedes aegypti mosquitoes; 3%
  % MORTALITY AFTER 24 HRS: 0%
Aedes aegypti mosquitoes; 3%, listed as β-CARYOPHYLLENE
  % MORTALITY AFTER 24 HRS: 77%
Aedes aegypti mosquitoes; 5%
  1 hour knockdown: 10%
  % MORTALITY AFTER 24 HRS: 17%
Aedes aegypti mosquitoes; 10%
  1 hour knockdown: 57%
  % MORTALITY AFTER 24 HRS: 40%
Aedes aegypti mosquitoes; 20%
  1 hour knockdown: 93%
  % MORTALITY AFTER 24 HRS: 83%
Aedes aegypti mosquitoes; single active, 3%
  % MORTALITY AFTER 24 HRS: 7% and 10%
[1]
  Vapor Pressure (@ 25° C.): 0.031 mmHg
  Solubility (in water @ 25° C.): 0.05 µg/mL (≈ 0.245 µM)

## C=C/C(C)=C/C/C=C(\C)CCC=C(C)C [Farnesene Alpha]
[1]
  Vapor Pressure (@ 25° C.): 0.025 mmHg
  Solubility (in water @ 25° C.): 0.011 µg/mL (≈ 0.0538 µM)

## OCC1CC=CCC1 (stereo not drawn) [3-Cyclohexene-1-methanol, 3-cyclohexene-1-methanol]
Aedes aegypti mosquitoes; Aedes aegypti, topical, 24 h
  mortality at 3 %: 57%
